This assay has as its target T1, GlyT1 (Homo sapiens, UniProt P48067).
T1 construct: expressed in transfected cells
T1 sequence (P48067 1-706): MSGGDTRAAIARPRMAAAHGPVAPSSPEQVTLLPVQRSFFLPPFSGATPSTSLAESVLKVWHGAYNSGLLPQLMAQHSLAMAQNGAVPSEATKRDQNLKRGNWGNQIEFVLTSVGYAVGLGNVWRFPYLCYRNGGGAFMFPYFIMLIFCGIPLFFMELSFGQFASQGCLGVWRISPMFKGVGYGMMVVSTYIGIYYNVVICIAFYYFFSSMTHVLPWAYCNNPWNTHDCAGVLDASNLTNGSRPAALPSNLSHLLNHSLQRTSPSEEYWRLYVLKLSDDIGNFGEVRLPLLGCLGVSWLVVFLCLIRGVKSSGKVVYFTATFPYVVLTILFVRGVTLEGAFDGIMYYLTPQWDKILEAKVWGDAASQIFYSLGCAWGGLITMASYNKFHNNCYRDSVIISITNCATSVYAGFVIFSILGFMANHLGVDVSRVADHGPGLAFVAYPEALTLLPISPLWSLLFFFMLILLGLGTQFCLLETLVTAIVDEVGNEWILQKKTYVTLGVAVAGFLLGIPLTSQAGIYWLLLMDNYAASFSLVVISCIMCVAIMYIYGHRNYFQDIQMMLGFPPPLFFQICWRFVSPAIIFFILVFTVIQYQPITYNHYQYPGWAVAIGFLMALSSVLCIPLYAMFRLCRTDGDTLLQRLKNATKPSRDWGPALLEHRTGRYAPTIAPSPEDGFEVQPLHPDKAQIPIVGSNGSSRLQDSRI
The assay is described as follows: Glycine Transporter 1 (GlyT1) uptake assay, scintillation proximity assay of [14C]-glycine uptake. It is filed as cell-based. As to conditions: SPA, four parameter logistic fit, read-out: GlyT1 (pIC50) (converted). The essentials:
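[14C]-glycine uptake read by scintillation proximity on a plate counter. IC50 from four-parameter logistic fit of dose-response data.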
In the case of `CC1(COc2ccc(S(C)(=O)=O)cc2C(=O)N2Cc3cn(-c4cccc(C(F)(F)F)c4F)nc3C2)COC1` [Example 438, 2-[2-Fluoro-3-(trifluoromethyl)phenyl]-5-{5-methanesulfonyl-2-[(3-methyloxetan-3-yl)methoxy]benzoyl}-2H 4H 5H 6H-pyrrolo[3,4-c]pyrazole], the IC50 is 0.1 to 1 µM.

In the case of `CC1(COc2ccc(S(C)(=O)=O)cc2C(=O)N2Cc3cn(-c4cc(Cl)ccc4F)nc3C2)COC1` [Example 439, 2-(5-Chloro-2-fluorophenyl)-5-{5-methanesulfonyl-2-[(3-methyloxetan-3-yl)methoxy]benzoyl}-2H 4H 5H 6H-pyrrolo[3,4-c]pyrazole], the IC50 was 0.1 to 1 µM.

Consider `CC1(COc2ccc(S(C)(=O)=O)cc2C(=O)N2Cc3cn(-c4ccc(F)cc4)nc3C2)COC1` [Example 440, 2-(4-Fluorophenyl)-5-{5-methanesulfonyl-2-[(3-methyloxetan-3-yl)methoxy]benzoyl}-2H 4H 5H 6H-pyrrolo[3,4-c]pyrazole], for which the IC50 is less than 0.1 µM.

In the case of `Cc1cccc(-n2cc3c(n2)CN(C(=O)c2cc(S(C)(=O)=O)ccc2OCC2(C)COC2)C3)c1F` [Example 441, 2-(2-Fluoro-3-methylphenyl)-5-{5-methanesulfonyl-2-[(3-methyloxetan-3-yl)methoxy]benzoyl}-2H 4H 5H 6H-pyrrolo[3,4-c]pyrazole], the IC50 is 0.1 to 1 µM.

As to `Cc1ccc(F)c(-n2cc3c(n2)CN(C(=O)c2cc(S(C)(=O)=O)ccc2OCC2(C)COC2)C3)c1` [Example 442, 2-(2-Fluoro-5-methylphenyl)-5-{5-methanesulfonyl-2-[(3-methyloxetan-3-yl)methoxy]benzoyl}-2H 4H 5H 6H-pyrrolo[3,4-c]pyrazole], the IC50 was 0.1 to 1 µM.

For `C[C@H](Oc1ccc(C#N)cc1C(=O)N1Cc2cn(-c3ccncc3)nc2C1)C(F)(F)F` [Example 443, 3-[2-(Pyridin-4-yl)-2H 4H 5H 6H-pyrrolo[3,4-c]pyrazole-5-carbonyl]-4-{[(2S)-1 1 1-trifluoropropan-2-yl]oxy}benzonitrile], the IC50 is less than 0.1 µM.

Take `CC(C)Oc1ccc(C#N)cc1C(=O)N1Cc2cnn(CC(F)(F)F)c2C1` [Example 444, 4-(Propan-2-yloxy)-3-[1-(2 2 2-trifluoroethyl)-1H 4H 5H 6H-pyrrolo[3,4-c]pyrazole-5-carbonyl]benzonitrile]: the IC50 is 0.1 to 1 µM.

For the compound `CS(=O)(=O)c1ccc(-c2cccc(F)c2)c(C(=O)N2Cc3cnn(CC(F)(F)F)c3C2)c1` [Example 445, 5-[2-(3-Fluorophenyl)-5-methanesulfonylbenzoyl]-1-(2 2 2-trifluoroethyl)-1H 4H 5H 6H-pyrrolo[3,4-c]pyrazole], the IC50 is 0.1 to 1 µM.

On to `C[C@H](Oc1ccc(S(C)(=O)=O)cc1C(=O)N1Cc2cnn(-c3cccc4nccn34)c2C1)C(F)(F)F` [Example 446, 1-{Imidazo[1 2-a]pyridin-5-yl}-5-(5-methanesulfonyl-2-{[(2S)-1 1 1-trifluoropropan-2-yl]oxy}benzoyl)-1H 4H 5H 6H-pyrrolo[3,4-c]pyrazole], for which the IC50 is less than 0.1 µM.

Take `CC(C)Oc1ccc(C#N)cc1C(=O)N1Cc2cn(-c3ccncc3)nc2C1` [Example 447, 4-(Propan-2-yloxy)-3-[2-(pyridin-4-yl)-2H 4H 5H 6H-pyrrolo[3,4-c]pyrazole-5-carbonyl]benzonitrile]: the IC50 was less than 0.1 µM.

`CS(=O)(=O)c1ccc(-c2cccc(F)c2)c(C(=O)N2Cc3cn(C4CCOCC4)nc3C2)c1` [Example 448, 5-[2-(3-Fluorophenyl)-5-methanesulfonylbenzoyl]-2-(oxan-4-yl)-2H 4H 5H 6H-pyrrolo[3,4-c]pyrazole]: the IC50 was less than 0.1 µM.

As for `CS(=O)(=O)c1ccc(-c2cccc(F)c2)c(C(=O)N2Cc3cn(CC4CC4)nc3C2)c1` [Example 449, 2-(Cyclopropylmethyl)-5-[2-(3-fluorophenyl)-5-methanesulfonylbenzoyl]-2H 4H 5H 6H-pyrrolo[3,4-c]pyrazole], the IC50 is less than 0.1 µM.

Take `CC(C)Oc1ccc(C#N)cc1C(=O)N1Cc2cn(CC3CC3)nc2C1` [Example 450, 3-[2-(Cyclopropylmethyl)-2H 4H 5H 6H-pyrrolo[3,4-c]pyrazole-5-carbonyl]-4-(propan-2-yloxy)benzonitrile]: the IC50 is 0.1 to 1 µM.

With `C[C@H](Oc1ccc(C#N)cc1C(=O)N1Cc2cn(CC3CC3)nc2C1)C(F)(F)F` [Example 451, 3-[2-(Cyclopropylmethyl)-2H 4H 5H 6H-pyrrolo[3,4-c]pyrazole-5-carbonyl]-4-{[(2S)-1 1 1-trifluoropropan-2-yl]oxy}benzonitrile], the IC50 was 0.1 to 1 µM.

As for `CS(=O)(=O)c1ccc(-c2cccc(F)c2)c(C(=O)N2Cc3cnn(CC4CC4)c3C2)c1` [Example 452, 1-(Cyclopropylmethyl)-5-[2-(3-fluorophenyl)-5-methanesulfonylbenzoyl]-1H 4H 5H 6H-pyrrolo[3,4-c]pyrazole], the IC50 was 1 to 10 µM.

With `CS(=O)(=O)c1ccc(-c2cccc(F)c2)c(C(=O)N2Cc3cn(CC4CC4(F)F)nc3C2)c1` (stereo not shown) [Example 453, 2-[(2 2-Difluorocyclopropyl)methyl]-5-[2-(3-fluorophenyl)-5-methanesulfonylbenzoyl]-2H 4H 5H 6H-pyrrolo[3,4-c]pyrazole], the IC50 was less than 0.1 µM.

`CS(=O)(=O)c1ccc(-c2cccc(F)c2)c(C(=O)N2Cc3cnn(CC4CC4(F)F)c3C2)c1` (stereo not shown) [Example 454, 1-[(2 2-Difluorocyclopropyl)methyl]-5-[2-(3-fluorophenyl)-5-methanesulfonylbenzoyl]-1H 4H 5H 6H-pyrrolo[3,4-c]pyrazole]: the IC50 is 1 to 10 µM.

Consider `C[C@H](Oc1ccc(S(C)(=O)=O)cc1C(=O)N1Cc2cn(CC3CC3(F)F)nc2C1)C(F)(F)F` (stereo partly drawn) [Example 455, 2-[(2 2-Difluorocyclopropyl)methyl]-5-(5-methanesulfonyl-2-{[(2S)-1 1 1-trifluoropropan-2-yl]oxy}benzoyl)-2H 4H 5H 6H-pyrrolo[3,4-c]pyrazole], for which the IC50 was less than 0.1 µM.

Consider `CC(C)Oc1ccc(C#N)cc1C(=O)N1Cc2cn(CC3CC3(F)F)nc2C1` (stereo not shown) [Example 456, 3-{2-[(2 2-Difluorocyclopropyl)methyl]-2H 4H 5H 6H-pyrrolo[3,4-c]pyrazole-5-carbonyl}-4-(propan-2-yloxy)benzonitrile], for which the IC50 is 0.1 to 1 µM.

Take `C[C@H](Oc1ccc(C#N)cc1C(=O)N1Cc2cn(CC3CC3(F)F)nc2C1)C(F)(F)F` (stereo partly drawn) [Example 457, 3-{2-[(2 2-Difluorocyclopropyl)methyl]-2H 4H 5H 6H-pyrrolo[3,4-c]pyrazole-5-carbonyl}-4-{[(2S)-1 1 1-trifluoropropan-2-yl]oxy}benzonitrile]: the IC50 was 0.1 to 1 µM.

For the compound `C[C@H](Oc1ccc(C#N)cc1C(=O)N1Cc2cnn(C3CCOCC3)c2C1)C(F)(F)F` [Example 458, 3-[1-(Oxan-4-yl)-1H 4H 5H 6H-pyrrolo[3,4-c]pyrazole-5-carbonyl]-4-{[(2S)-1 1 1-trifluoropropan-2-yl]oxy}benzonitrile], the IC50 is greater than 10 µM.

On to `CC(C)Oc1ccc(C#N)cc1C(=O)N1Cc2cn(-c3ccnc(C4CCC4)c3)nc2C1` [Example 459, 3-[2-(2-Cyclobutylpyridin-4-yl)-2H 4H 5H 6H-pyrrolo[3,4-c]pyrazole-5-carbonyl]-4-(propan-2-yloxy)benzonitrile], for which the IC50 is less than 0.1 µM.

Consider `C[C@H](Oc1ccc(C#N)cc1C(=O)N1Cc2cn(-c3ccnc(C4CCC4)c3)nc2C1)C(F)(F)F` [Example 460, 3-[2-(2-Cyclobutylpyridin-4-yl)-2H 4H 5H 6H-pyrrolo[3,4-c]pyrazole-5-carbonyl]-4-{[(2S)-1 1 1-trifluoropropan-2-yl]oxy}benzonitrile], for which the IC50 is less than 0.1 µM.

With `CC(C)Oc1ccc(S(C)(=O)=O)cc1C(=O)N1Cc2cn(CC3CC(F)(F)C3)nc2C1` [Example 461, 2-[(3 3-Difluorocyclobutyl)methyl]-5-[5-methanesulfonyl-2-(propan-2-yloxy)benzoyl]-2H 4H 5H 6H-pyrrolo[3,4-c]pyrazole], the IC50 is less than 0.1 µM.

`C[C@H](Oc1ccc(C#N)cc1C(=O)N1Cc2cn(CC3CC(F)(F)C3)nc2C1)C(F)(F)F` [Example 462, 3-{2-[(3 3-Difluorocyclobutyl)methyl]-2H 4H 5H 6H-pyrrolo[3,4-c]pyrazole-5-carbonyl}-4-{[(2S)-1 1 1-trifluoropropan-2-yl]oxy}benzonitrile]: the IC50 was 0.1 to 1 µM.

Regarding `C[C@H](Oc1ccc(S(C)(=O)=O)cc1C(=O)N1Cc2cn(CC3CC(F)(F)C3)nc2C1)C(F)(F)F` [Example 463], the IC50 was less than 0.1 µM.

`CS(=O)(=O)c1ccc(-c2cccc(F)c2)c(C(=O)N2Cc3cn(CC4CC(F)(F)C4)nc3C2)c1` [Example 464, 2-[(3 3-Difluorocyclobutyl)methyl]-5-[2-(3-fluorophenyl)-5-methanesulfonylbenzoyl]-2H 4H 5H 6H-pyrrolo[3,4-c]pyrazole]: the IC50 is less than 0.1 µM.

For the compound `C[C@H](Oc1ccc(C#N)cc1C(=O)N1Cc2cn(-c3ccc(C#N)nc3)nc2C1)C(F)(F)F` [Example 465, 5-[5-(5-Cyano-2-{[(2S)-1 1 1-trifluoropropan-2-yl]oxy}benzoyl)-2H 4H 5H 6H-pyrrolo[3,4-c]pyrazol-2-yl]pyridine-2-carbonitrile], the IC50 is 0.1 to 1 µM.

Source of the values: patent US9708334B2, “Substituted 2,4,5,6-tetrahydropyrrolo[3,4-c]pyrazole and 4,5,6,7-tetrahydro-2H-pyrazolo[4,3-c]pyridine compounds as GlyT1 inhibitors” (DART NEUROSCIENCE (CAYMAN) LTD., priority 2014, dated 2017).
